The results in this text go back to patent publication US20240182460A1, “ALLOSTERIC CHROMENONE INHIBITORS OF PHOSPHOINOSITIDE 3-KINASE (PI3K) FOR THE TREATMENT OF DISEASE” (PETRA PHARMA CORPORATION, priority 2022, published 2024).

The target in assay [1] is PI3Kα E545K (Homo sapiens, UniProt P42336, E545K). Briefly: PI3Kα E545K mutant in vitro cell based assay, MDA-MB-361 cells. On the set-up: MDA-MB-361 (ATCC-HTB-27) cell line (PI3Kα E545K); host or cells: MDA-MB-361. The note with it: MDA-MB-361 cell line, 0% FBS, no insulin, 3 hours treatment. The essentials:
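MDA-MB-361 cells (PI3Kα E545K) seeded in serum-free MEM assay medium without insulin, attached overnight, then treated 3 h with compound (10-point 1:3 series, 0.3% DMSO). AlphaLISA SureFire readout of lysates. IC50 by 4-parameter fit, normalized to DMSO (max) and 1 μM GDC-0032 (min).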

For assay [2], the target named is T1, PI3Kα H1047R (Homo sapiens, UniProt P42336, H1047R).
T1 construct: The MDA-MB-453 (ATCC-HTB-131) cell line (PI3Kα H1047R); host or cells: MDA-MB-453
T1 sequence (P42336 whole entry H1047R): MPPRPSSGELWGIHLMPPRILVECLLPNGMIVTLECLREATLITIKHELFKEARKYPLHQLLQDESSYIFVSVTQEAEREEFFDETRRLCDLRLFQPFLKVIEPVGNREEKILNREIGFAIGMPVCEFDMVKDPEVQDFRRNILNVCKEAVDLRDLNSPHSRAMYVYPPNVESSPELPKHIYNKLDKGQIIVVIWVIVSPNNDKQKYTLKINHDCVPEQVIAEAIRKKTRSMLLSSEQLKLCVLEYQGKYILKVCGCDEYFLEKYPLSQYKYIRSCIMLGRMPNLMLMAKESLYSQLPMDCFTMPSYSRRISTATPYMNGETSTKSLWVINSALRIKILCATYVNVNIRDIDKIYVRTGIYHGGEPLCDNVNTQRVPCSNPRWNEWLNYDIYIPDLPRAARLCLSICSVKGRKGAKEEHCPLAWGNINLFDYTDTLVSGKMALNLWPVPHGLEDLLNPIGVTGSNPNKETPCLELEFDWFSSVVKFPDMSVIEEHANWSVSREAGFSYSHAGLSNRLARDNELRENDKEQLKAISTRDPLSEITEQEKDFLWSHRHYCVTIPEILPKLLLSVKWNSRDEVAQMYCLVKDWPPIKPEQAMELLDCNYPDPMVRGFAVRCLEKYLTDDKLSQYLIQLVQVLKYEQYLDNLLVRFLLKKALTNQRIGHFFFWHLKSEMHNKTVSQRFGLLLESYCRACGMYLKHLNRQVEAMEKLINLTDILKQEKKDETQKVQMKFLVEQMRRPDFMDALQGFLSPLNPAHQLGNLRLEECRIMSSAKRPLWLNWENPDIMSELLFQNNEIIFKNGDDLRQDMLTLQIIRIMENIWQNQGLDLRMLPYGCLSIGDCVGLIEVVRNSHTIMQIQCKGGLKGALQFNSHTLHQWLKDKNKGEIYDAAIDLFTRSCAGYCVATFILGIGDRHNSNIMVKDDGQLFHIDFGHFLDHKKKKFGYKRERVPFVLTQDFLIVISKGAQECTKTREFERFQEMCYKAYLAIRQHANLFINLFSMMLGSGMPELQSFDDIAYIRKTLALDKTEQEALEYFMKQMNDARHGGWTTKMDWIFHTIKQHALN
T1 sequence (P27986 whole entry partner): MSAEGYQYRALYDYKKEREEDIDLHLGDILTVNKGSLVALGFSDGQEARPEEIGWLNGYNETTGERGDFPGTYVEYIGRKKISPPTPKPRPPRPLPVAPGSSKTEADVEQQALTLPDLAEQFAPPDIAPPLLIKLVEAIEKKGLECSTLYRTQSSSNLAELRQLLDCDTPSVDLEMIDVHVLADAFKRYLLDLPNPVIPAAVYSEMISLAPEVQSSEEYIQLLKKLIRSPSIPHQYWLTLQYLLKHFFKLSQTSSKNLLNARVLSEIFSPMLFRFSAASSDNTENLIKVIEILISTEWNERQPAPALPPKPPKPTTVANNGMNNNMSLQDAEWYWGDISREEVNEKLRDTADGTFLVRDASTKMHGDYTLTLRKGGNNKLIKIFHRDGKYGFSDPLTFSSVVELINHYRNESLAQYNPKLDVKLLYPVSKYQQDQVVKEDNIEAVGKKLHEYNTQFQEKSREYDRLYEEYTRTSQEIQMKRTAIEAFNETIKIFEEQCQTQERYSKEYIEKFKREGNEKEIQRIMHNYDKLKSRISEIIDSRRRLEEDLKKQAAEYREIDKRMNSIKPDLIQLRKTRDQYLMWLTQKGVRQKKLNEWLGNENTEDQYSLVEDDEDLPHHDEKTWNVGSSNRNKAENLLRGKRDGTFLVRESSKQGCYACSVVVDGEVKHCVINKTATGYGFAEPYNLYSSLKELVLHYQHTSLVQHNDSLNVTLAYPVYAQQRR
Nature of the assay: PI3Kα H1047R mutant in vitro cell based assay, MDA-MB-453 cells (AlphaLisa SureFire). As to conditions: MDA-MB-453 cell line, 0% FBS, 3 hours treatment. Summed up: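 MDA-MB-453 cells (endogenous PI3Kα H1047R) were treated for 3 h in serum-free MEM containing 1 μg/mL insulin, with 10-point 1:3 dilutions in 0.3% DMSO. Lysates were read by AlphaLisa SureFire. IC50 came from a 4-parameter logistic fit of duplicate % inhibition, normalized to DMSO (max) and 1 μM GDC-0032 (min).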
For orientation: Alpha assays give light when donor and acceptor beads are brought close together.

As a reminder, the IC50 is the concentration that inhibits the measured activity by half. Higher therefore signals lower potency.

PI3Kα E545K, sequence (P42336 whole entry E545K): as the sequence (P42336 whole entry H1047R) above, with E545K, R1047H counted along it
PI3Kα E545K, sequence (P27986 whole entry partner): as the sequence (P27986 whole entry partner) above

For `CC(=O)Nc1ccc(-c2oc3c([C@@H](C)Oc4ccc(Cl)nc4C(N)=O)cc(C)cc3c(=O)c2C)cc1` [Example 58C, 3-[(1R)-1-[2-(4-Acetamidophenyl)-3,6-dimethyl-4-oxo-chromen-8-yl]ethoxy]-6-chloro-pyridine-2-carboxamide], the figures for the half-inhibitory concentration (IC50) in assay [1] and in assay [2] were under 500 nM and under 100 nM, respectively.
In the same order, the values of `Cc1cc([C@@H](C)Oc2ccc(Cl)nc2-c2noc(=O)[nH]2)c2oc(-c3ccc4c(c3)OC(F)(F)O4)c(C)c(=O)c2c1` [Example 46A, 3-[6-Chloro-3-[(1R)-1-[2-(2,2-difluoro-1,3-benzodioxol-5-yl)-3,6-dimethyl-4-oxo-chromen-8-yl]ethoxy]-2-pyridyl]-4H-1,2,4-oxadiazol-5-one] are under 500 nM and under 100 nM.
The corresponding values for `Cc1cc([C@@H](C)Oc2ccc(Br)nc2C(N)=O)c2oc(-c3ccc4nn(C)cc4c3)c(C)c(=O)c2c1` [Example 81C, 6-Bromo-3-[(1R)-1-[3,6-dimethyl-2-(2-methylindazol-5-yl)-4-oxo-chromen-8-yl]ethoxy]pyridine-2-carboxamide] are under 500 nM and under 100 nM.
Consider `Cc1cc([C@@H](C)Oc2ccc(Cl)nc2NS(C)(=O)=O)c2oc(-c3cnn(C)c3)c(C)c(=O)c2c1` [Example 149A, N-[6-Chloro-3-[(1R)-1-[3,6-dimethyl-2-(1-methylpyrazol-4-yl)-4-oxo-chromen-8-yl]ethoxy]-2-pyridyl]methanesulfonamide], for which the IC50 in assay [1] is under 500 nM.
In the case of `Cc1cc([C@@H](C)Oc2ccc(Cl)nc2C(N)=O)c2oc(-c3cc(F)c4nn(C)cc4c3)c(C)c(=O)c2c1` [Example 17B, 6-Chloro-3-[(1R)-1-[2-(7-fluoro-2-methyl-indazol-5-yl)-3,6-dimethyl-4-oxo-chromen-8-yl]ethoxy]pyridine-2-carboxamide], the values for the concentration for half-maximal inhibition (IC50) in assay [1] and in assay [2] were under 500 nM and under 100 nM, respectively.
